Format in all cases: biochemical
Assay [1] relates to normal human blood pooled plasma. Put plainly: Test 2: plasminogen activity, sample incubated with normal human pooled plasma. The conditions noted are these: Table 2. How it is done:
Following this, the samples, diluted, were incubated with normal human blood pooled plasma, which had been diluted 1:40 in TRIS buffer, in proportions of 1 part fraction to two parts plasma. These combinations were incubated to determine if the fractions had plasminogen activator properties.
(§1) In Test 2, 30 μl of a 1:40 dilution of normal human plasma were used, and in Test 3, 30 µl of […] of pure plasminogen were used. The results, shown as ΔmA/min, represents the average of five readings.

The next assay concerns the target plasmin (Homo sapiens, UniProt P00747). The experiment in a line: Antiplasmin/plasmin inhibitory activity. The following applies: Table 3; for ABSORBANCE: absorbance at 405nm, remaining active plasmin, substrate S-225; for % INHIBITION: by reference to normal human pooled plasma standard curve. How it is done:
Fifty-four different runs were conducted, using various compounds and compositions. […] A standard curve is then constructed, by diluting the pooled plasma, and mixing each dilution with a known plasmin standard. Quantity of active plasmin remaining is measured and this quantity is inversely proportional to antiplasmin activity.

Assay [2] is described as follows: Test 1: plasmin/plasmin-like activity, cleavage of substrate by the sample. The conditions noted are these: Table 2. How it is done:
Each fraction was diluted 1:5 in TRIS buffer (50 mM, pH 7.4, I 0.15), and then mixed with the substrate. […] In Test 2, 30 μl of a 1:40 dilution of normal human plasma were used, and in Test 3, 30 µl of […] of pure plasminogen were used. The results, shown as ΔmA/min, represents the average of five readings.

For a further assay, the target named is purified plasminogen (Homo sapiens, UniProt P00747). Put plainly: Test 3: plasminogen activatory activity, sample incubated with purified plasminogen. How it is done:
In a third test, each fraction was incubated with purified plasminogen so as to enhance activity, because normal human pooled plasma contains plasma proteins inhibitors.
as §1

Where [3] appears, read: Table I, sample 1:5 dilution, pure plasminogen, average of five readings.

Where “and” joins values, the source holds several entries; their conditions need not be identical. Equal entries are not always repeated.

Sequence of purified plasminogen (P00747 20-810 limits assumed): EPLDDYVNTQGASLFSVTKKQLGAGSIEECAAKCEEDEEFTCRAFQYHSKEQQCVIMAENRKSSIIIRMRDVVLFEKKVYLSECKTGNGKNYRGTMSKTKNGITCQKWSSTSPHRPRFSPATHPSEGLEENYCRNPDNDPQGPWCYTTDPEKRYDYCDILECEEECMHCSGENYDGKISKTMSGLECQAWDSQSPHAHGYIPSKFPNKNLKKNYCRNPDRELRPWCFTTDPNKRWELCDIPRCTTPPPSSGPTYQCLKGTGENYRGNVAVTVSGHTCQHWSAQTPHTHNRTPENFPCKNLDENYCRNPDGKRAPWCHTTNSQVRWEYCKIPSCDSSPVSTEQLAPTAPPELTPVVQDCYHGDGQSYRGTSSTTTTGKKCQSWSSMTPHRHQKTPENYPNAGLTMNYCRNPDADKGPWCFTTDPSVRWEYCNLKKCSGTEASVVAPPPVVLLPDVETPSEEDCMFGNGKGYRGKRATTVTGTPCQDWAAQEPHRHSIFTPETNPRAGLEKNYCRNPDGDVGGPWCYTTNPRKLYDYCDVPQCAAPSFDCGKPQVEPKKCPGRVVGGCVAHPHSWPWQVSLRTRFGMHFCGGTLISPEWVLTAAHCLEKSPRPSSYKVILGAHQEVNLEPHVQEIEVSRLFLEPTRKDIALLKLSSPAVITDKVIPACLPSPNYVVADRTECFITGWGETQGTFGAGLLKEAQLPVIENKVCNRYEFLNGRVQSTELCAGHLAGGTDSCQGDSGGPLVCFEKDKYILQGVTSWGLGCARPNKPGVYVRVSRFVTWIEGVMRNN

As for “CERAMIDE GALACTOSIDE [PURIFIED CERAMIDE GALACTOSIDE]”, the “Plasminogen Activity” value in assay [1] is recorded as 0. Moreover, on plasmin, the ABSORBANCE is 0.176 and 0.192. The “Plasmin Activity” value in assay [2] was 0. Also, at purified plasminogen (Table 2), the “Plasminogen Activatory Activity” value is on record as 0.
Take “CERAMIDE TRIHEXOSIDE [PURIFIED CERAMIDE TRIHEXOSIDE]”: the “Plasminogen Activity” value in assay [1] is 0. On plasmin, the ABSORBANCE is reported as 0.184 and the “% INHIBITION” value worked out at 0%. Further, in assay [2], the “Plasmin Activity” value is reported as 0. Moreover, the “Plasminogen Activatory Activity” value at purified plasminogen (Table 2) is listed as 0.
Regarding “DIGALACTOSYL DIGLYCERIDE [PURIFIED DIGALACTOSYL DIGLYCERIDE]”, in assay [1], the “Plasminogen Activity” value is given as 0. Also, at plasmin, the ABSORBANCE is 0.190 and the “% INHIBITION” value came to 0%. Further, the “Plasmin Activity” value in assay [2] came out at 0. Besides, the “Plasminogen Activatory Activity” value on purified plasminogen (Table 2) came to 0.
On to PHOSPHATIDYL INOSITOL 4-MONOPHOSPHATE, for which the ABSORBANCE result on plasmin is given as “Turbid”.
As for “PHOSPHATIDYL INOSITOL [PURIFIED PHOSPHATIDYL INOSITOL]”, in assay [1], the “Plasminogen Activity” value was found to be 0. Further, at plasmin, the ABSORBANCE came to 0.187 and the “% INHIBITION” value came out at 0%. Besides, the “Plasmin Activity” value in assay [2] came to 0. At purified plasminogen (Table 2), the “Plasminogen Activatory Activity” value amounted to 0.
Regarding “PURE PLASMINOGEN: purified plasminogen used in Test 3, tested alone”, in the assay with purified plasminogen (setting [3]), the “Plasminogen Activatory Activity” value is 0 ΔmA/min.
Turning to SPHINGOMYELIN, the “% INHIBITION” value on plasmin is 18%.

B1: ACTIVATED PURE PLASMINOGEN: activated pure plasminogen, positive reference in Test 3 (protein, UniProt P00747 20-580; P00747 581-810, looked up)
Plasmin heavy chain A: EPLDDYVNTQGASLFSVTKKQLGAGSIEECAAKCEEDEEFTCRAFQYHSKEQQCVIMAENRKSSIIIRMRDVVLFEKKVYLSECKTGNGKNYRGTMSKTKNGITCQKWSSTSPHRPRFSPATHPSEGLEENYCRNPDNDPQGPWCYTTDPEKRYDYCDILECEEECMHCSGENYDGKISKTMSGLECQAWDSQSPHAHGYIPSKFPNKNLKKNYCRNPDRELRPWCFTTDPNKRWELCDIPRCTTPPPSSGPTYQCLKGTGENYRGNVAVTVSGHTCQHWSAQTPHTHNRTPENFPCKNLDENYCRNPDGKRAPWCHTTNSQVRWEYCKIPSCDSSPVSTEQLAPTAPPELTPVVQDCYHGDGQSYRGTSSTTTTGKKCQSWSSMTPHRHQKTPENYPNAGLTMNYCRNPDADKGPWCFTTDPSVRWEYCNLKKCSGTEASVVAPPPVVLLPDVETPSEEDCMFGNGKGYRGKRATTVTGTPCQDWAAQEPHRHSIFTPETNPRAGLEKNYCRNPDGDVGGPWCYTTNPRKLYDYCDVPQCAAPSFDCGKPQVEPKKCPGR
Plasmin light chain B: VVGGCVAHPHSWPWQVSLRTRFGMHFCGGTLISPEWVLTAAHCLEKSPRPSSYKVILGAHQEVNLEPHVQEIEVSRLFLEPTRKDIALLKLSSPAVITDKVIPACLPSPNYVVADRTECFITGWGETQGTFGAGLLKEAQLPVIENKVCNRYEFLNGRVQSTELCAGHLAGGTDSCQGDSGGPLVCFEKDKYILQGVTSWGLGCARPNKPGVYVRVSRFVTWIEGVMRNN
modifications: Plasmin
Turning to B1, in the assay with purified plasminogen (setting [3]), the “Plasminogen Activatory Activity” value is 19 ΔmA/min and 18 ΔmA/min.

Values taken from patent publication US4766111A, “Lipids with plasmin inhibitory properties” (Trustees of Boston University, priority 1987, dated 1988).
